From PubChem BioAssay AID330 (DTP/NCI, 2004)
“And” between values parts separate entries of the source, which are not always exact repeats. Identical values can stand only once. Inconclusive results and toxic doses are left out.

Tested on: P388 leukemia ip, CD2F1 mice, survival T/C
Experiment: NCI In Vivo Anticancer Drug Screen. Data for tumor model P388 Leukemia (intraperitoneal) in CD2F1 (CDF1) mice
Settings: endpoint: median survival time, higher = longer survival
In short: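 Mice carrying the transplanted tumor received test compound or vehicle. Survival was recorded in each group, and the value is the treated-group measurement divided by that of the vehicle-treated control group.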

[1] = dose: 50.0 mg/kg/injection, schedule: Q01DX005 (ip), vehicle: Klucel (hydroxypropylcellulose) (HPC)
[2] = dose: 100.0 mg/kg/injection, schedule: Q01DX005 (ip), vehicle: Klucel (hydroxypropylcellulose) (HPC)
[3] = dose: 200.0 mg/kg/injection, schedule: Q01DX005 (ip), vehicle: Klucel (hydroxypropylcellulose) (HPC)
[4] = dose: 12.5 mg/kg/injection, schedule: Q01DX005 (ip), vehicle: saline with Tween-80
[5] = dose: 25.0 mg/kg/injection, schedule: Q01DX005 (ip), vehicle: saline with Tween-80
[6] = dose: 50.0 mg/kg/injection, schedule: Q01DX005 (ip), vehicle: saline with Tween-80
[7] = dose: 50.0 mg/kg/injection, schedule: Q01DX009 (ip), vehicle: saline with Tween-80
[8] = dose: 100.0 mg/kg/injection, schedule: Q01DX009 (ip), vehicle: saline with Tween-80
[9] = dose: 200.0 mg/kg/injection, schedule: Q01DX009 (ip), vehicle: saline with Tween-80

With `O=c1[nH]c(=O)n(C2CC(O)C(CO)O2)cc1F` (centres undefined) the T/C (dose: 10.0 mg/kg/injection, schedule: Q01DX010 (ip), vehicle: saline) was 163 % of control, the T/C (dose: 12.5 mg/kg/injection, schedule: Q04DX002 (ip), vehicle: water) was 108 % of control and the T/C (dose: 20.0 mg/kg/injection, schedule: Q01DX009 (ip), vehicle: saline) was 155 % of control. The T/C (dose: 20.0 mg/kg/injection, schedule: Q01DX010 (ip), vehicle: saline) was 181 % of control, the T/C (dose: 38.0 mg/kg/injection, schedule: Q01DX009 (ip), vehicle: saline) was 160 % of control and the T/C (dose: 40.0 mg/kg/injection, schedule: Q01DX009 (ip), vehicle: saline) was 117 % of control. The T/C (dose: 40.0 mg/kg/injection, schedule: Q01DX010 (ip), vehicle: saline) was 222 % of control, the T/C (dose: 49.0 mg/kg/injection, schedule: Q01DX009 (ip), vehicle: saline) was 159 % of control and 167 % of control and the T/C (dose: 50.0 mg/kg/injection, schedule: Q01DX005 (ip), vehicle: saline) was 114 % of control. The T/C (dose: 56.0 mg/kg/injection, schedule: Q01DX009 (ip), vehicle: saline) was 123 % of control, the T/C (dose: 75.0 mg/kg/injection, schedule: Q01DX009 (ip), vehicle: saline) was 185 % of control and the T/C (dose: 80.0 mg/kg/injection, schedule: Q01DX009 (ip), vehicle: saline) was 92 % of control. The T/C (dose: 100.0 mg/kg/injection, schedule: Q01DX001 (ip), vehicle: saline) was 110 % of control, the T/C (dose: 100.0 mg/kg/injection, schedule: Q01DX005 (ip), vehicle: saline) was 98 % of control and the T/C (dose: 110.0 mg/kg/injection, schedule: Q01DX009 (ip), vehicle: saline) was 103 % of control. For the same compound, the T/C (dose: 120.0 mg/kg/injection, schedule: Q01DX009 (ip), vehicle: saline) was 81 % of control, the T/C (dose: 180.0 mg/kg/injection, schedule: Q01DX009 (ip), vehicle: saline) was 83 % of control and the T/C (dose: 200.0 mg/kg/injection, schedule: Q01DX001 (ip), vehicle: saline) was 111 % of control. The T/C (dose: 200.0 mg/kg/injection, schedule: Q01DX005 (ip), vehicle: saline) was 95 % of control, the T/C (dose: 240.0 mg/kg/injection, schedule: Q04DX002 (ip), vehicle: saline) was 157 % of control and the T/C (dose: 350.0 mg/kg/injection, schedule: Q04DX003 (ip), vehicle: saline) was 168 % of control. For the same compound, the T/C (dose: 400.0 mg/kg/injection, schedule: Q04DX002 (ip), vehicle: saline) was 164 % of control and the T/C (dose: 400.0 mg/kg/injection, schedule: Q04DX003 (ip), vehicle: saline) was 100 % of control.
For `COC1OC(C(C)Br)C2OC(C)(C)OC12` (centres undefined), the T/C (dose: 60.0 mg/kg/injection, schedule: Q01DX005 (ip), vehicle: saline with Tween-80) was 105 % of control, the T/C (dose: 120.0 mg/kg/injection, schedule: Q01DX005 (ip), vehicle: saline with Tween-80) was 102 % of control and the T/C (dose: 240.0 mg/kg/injection, schedule: Q01DX005 (ip), vehicle: saline with Tween-80) was 107 % of control.
`CCOP(=O)(Nc1ccc2c(c1)Cc1c-2cc(Br)c(NC(C)=O)c1Br)OCC` was tested, and the T/C [1] was 94 % of control, the T/C [2] was 94 % of control and the T/C [3] was 96 % of control.
With `COC(=O)c1[se]c(=[Se])[se]c1C(=O)OC` the T/C (dose: 200.0 mg/kg/injection, schedule: Q01DX001 (ip), vehicle: Klucel (hydroxypropylcellulose) (HPC)) was 88 % of control.
`CC(C)CNC1=CC(=S)NC(C)(C)C1` was tested, and the T/C [1] was 99 % of control, the T/C [2] was 101 % of control and the T/C [3] was 94 % of control.
For `O=c1c2ccccc2sc2c(CO)ccc(NCCCN3CCN(CCCNc4ccc(CO)c5sc6ccccc6c(=O)c45)CC3)c12`, the T/C (dose: 0.67 mg/kg/injection, schedule: Q01DX005 (ip), vehicle: saline with Tween-80) was 93 % of control, the T/C (dose: 1.25 mg/kg/injection, schedule: Q01DX005 (ip), vehicle: saline with Tween-80) was 104 % of control and the T/C (dose: 2.5 mg/kg/injection, schedule: Q01DX005 (ip), vehicle: saline with Tween-80) was 107 % of control. For the same compound, the T/C (dose: 5.0 mg/kg/injection, schedule: Q01DX005 (ip), vehicle: saline with Tween-80) was 95 % of control, the T/C (dose: 10.0 mg/kg/injection, schedule: Q01DX005 (ip), vehicle: saline with Tween-80) was 104 % of control and the T/C (dose: 20.0 mg/kg/injection, schedule: Q01DX005 (ip), vehicle: saline with Tween-80) was 94 % of control. The T/C (dose: 40.0 mg/kg/injection, schedule: Q01DX005 (ip), vehicle: saline with Tween-80) was 86 % of control and 95 % of control and the T/C (dose: 80.0 mg/kg/injection, schedule: Q01DX005 (ip), vehicle: saline with Tween-80) was 90 % of control.
`C=CCN(CC=C)c1nc(N)c2cc(OC)c(OC)cc2n1` was tested, and the T/C (dose: 37.5 mg/kg/injection, schedule: Q01DX009 (ip), vehicle: suspension in saline) was 100 % of control and the T/C (dose: 75.0 mg/kg/injection, schedule: Q01DX009 (ip), vehicle: suspension in saline) was 106 % of control.
With `COc1ccccc1N/N=c1/c2n(-c3ccc(Cl)cc3)c(=S)n(-c3ccccn3)c1=NCCN=2` the T/C [4] was 97 % of control, the T/C [5] was 100 % of control and the T/C [6] was 102 % of control and 94 % of control.
With `O=C1CN(c2cccc(C(F)(F)F)c2)C(=O)CN1/N=C/c1ccco1` the T/C [4] was 100 % of control, the T/C [5] was 105 % of control and the T/C [6] was 99 % of control and 100 % of control.
`Cc1cc(O)c(C(c2ccc(C#N)cc2)c2c(O)cc(C)[nH]c2=O)c(=O)[nH]1` was tested, and the T/C [7] was 95 % of control, the T/C [8] was 94 % of control and the T/C [9] was 98 % of control.
For `C/C=C\C#C/C=C1/C=CC(=O)O1`, the T/C (dose: 12.5 mg/kg/injection, schedule: Q01DX009 (ip), vehicle: Klucel (hydroxypropylcellulose) (HPC)) was 105 % of control, the T/C (dose: 25.0 mg/kg/injection, schedule: Q01DX009 (ip), vehicle: Klucel (hydroxypropylcellulose) (HPC)) was 105 % of control and the T/C (dose: 50.0 mg/kg/injection, schedule: Q01DX009 (ip), vehicle: Klucel (hydroxypropylcellulose) (HPC)) was 108 % of control. For the same compound, the T/C (dose: 100.0 mg/kg/injection, schedule: Q01DX009 (ip), vehicle: Klucel (hydroxypropylcellulose) (HPC)) was 108 % of control.
With `CC(=O)OCN1C(=O)C2C3C=CC(C2C1=O)C1C2C(=O)N(COC(C)=O)C(=O)C2C31` (centres undefined) the T/C (dose: 25.0 mg/kg/injection, schedule: Q01DX009 (ip), vehicle: saline with Tween-80) was 117 % of control, the T/C [7] was 115 % of control and the T/C [9] was 180 % of control. For the same compound, the T/C (dose: 400.0 mg/kg/injection, schedule: Q01DX009 (ip), vehicle: saline with Tween-80) was 208 % of control.
With `CCN(CC)C1CC(=O)C2(C)C3CCC4(C)C(C(C)C5CC(C)=C(CO)C(=O)O5)CCC4C3CC3OC32C1O` (centres undefined) the T/C (dose: 4.5 mg/kg/injection, schedule: Q01DX005 (ip), vehicle: Klucel (hydroxypropylcellulose) (HPC)) was 98 % of control, the T/C (dose: 9.0 mg/kg/injection, schedule: Q01DX005 (ip), vehicle: Klucel (hydroxypropylcellulose) (HPC)) was 93 % of control and the T/C (dose: 18.0 mg/kg/injection, schedule: Q01DX005 (ip), vehicle: Klucel (hydroxypropylcellulose) (HPC)) was 100 % of control. For the same compound, the T/C (dose: 36.0 mg/kg/injection, schedule: Q01DX005 (ip), vehicle: Klucel (hydroxypropylcellulose) (HPC)) was 98 % of control and the T/C (dose: 72.0 mg/kg/injection, schedule: Q01DX005 (ip), vehicle: Klucel (hydroxypropylcellulose) (HPC)) was 100 % of control.
For `OC(CN1CCCC2CCCCC21)c1cc2ccccc2c2ccccc12` (centres undefined), the T/C [8] was 108 % of control and the T/C [9] was 104 % of control.
In the case of `CC(C)C12OC1C1OC13C1(C)CCC4=C(COC4=O)C1CC1OC13C2=O` (centres undefined), the T/C (dose: 2.5 mg/kg/injection, schedule: Q01DX005 (ip), vehicle: saline + alcohol) is reported as 110 % of control, the T/C (dose: 5.0 mg/kg/injection, schedule: Q01DX005 (ip), vehicle: saline + alcohol) is reported as 100 % of control and the T/C (dose: 20.0 mg/kg/injection, schedule: Q01DX005 (ip), vehicle: saline + alcohol) is reported as 114 % of control.
With `O=C1CCC(N2CCCCC2)CCC1(c1ccccc1)c1ccccc1` (centres undefined) the T/C [6] was 106 % of control, the T/C (dose: 100.0 mg/kg/injection, schedule: Q01DX005 (ip), vehicle: saline with Tween-80) was 103 % of control and the T/C (dose: 200.0 mg/kg/injection, schedule: Q01DX005 (ip), vehicle: saline with Tween-80) was 96 % of control.
For `CC(=O)O[B-]1(OC(C)=O)Oc2c3ccccc3c3c4c(ccc(c24)=[O+]1)O[B-](OC(C)=O)(OC(C)=O)[O+]=3`, the T/C (dose: 50.0 mg/kg/injection, schedule: Q01DX005 (ip), vehicle: Klucel + Tween-80) was 94 % of control, the T/C (dose: 100.0 mg/kg/injection, schedule: Q01DX005 (ip), vehicle: Klucel + Tween-80) was 89 % of control and the T/C (dose: 200.0 mg/kg/injection, schedule: Q01DX005 (ip), vehicle: Klucel + Tween-80) was 93 % of control.
With `COC(=O)CC[C@@H]1C(C)=CC(=O)[C@@]2(F)[C@H]1CCC1=CC(=O)C=C[C@@]12C` the T/C [1] was 108 % of control, the T/C [2] was 100 % of control and the T/C [3] was 109 % of control.
